Test results: US20150141506A1, “INDANE DIMERS FOR USE IN THE TREATMENT OF AUTOIMMUNE INFLAMMATORY DISEASE” (Venantius Limited, priority 2012, published 2015)

Test system: IL2 release from Jurkat cells
Experiment: Effect of compounds on IL-2 secretion in T lymphocytes (Jurkat 6.1, anti-CD3/anti-CD28 stimulated, ELISA)
Assay type: cell-based
Conditions: for activity at 1 µM / activity at 10 µM: Homo sapiens, Jurkat, read-out: IL2 release as percentage of anti-CD3/CD28 stimulated release in presence of DMSO, Mean; for activity at 1 µM / activity at 10 µM / IL-2 production, absolute values: 24 h; for IL-2 production, absolute values: 30 min pre-treatment, DMSO control 320.67 (plate 2), 338.25 (plate 3); for effect on IL2 release, in words: 1 and 10 μM
Description: The T cell line Jurkat 6.1 (ATCC) was used. Cells were pre-treated for 30 min with 1 μM or 10 μM of the respective compound and then stimulated with plate-bound anti-CD3 (BD Pharmingen) and anti-CD28 (AnCell). DMSO was used as vehicle control. […] After 24 hs the supernatant was collected and IL-2 secretion was measured by ELISA.
Compounds were prepared by dissolution in DMSO to yield final concentrations of 1 and 10 μg/ml

In the case of CCCOC(=O)c1ccc(C[C@@]2(C3=Cc4ccccc4C3)Cc3ccccc3[C@H]2OC(=O)[C@@H](N)CC(C)C)cc1 [Compound 41, propyl 4-(((1S,2S)-1-(((S)-2-amino-4-methylpentanoyl)oxy)-2,3-dihydro-1H, 1′H-[2,2′-biinden]-2-yl)methyl)benzoate], the activity at 1 µM is reported as 77%, the activity at 10 µM is reported as 42.1% and the “IL-2 production, absolute values” (compound 1 uM) is reported as 99.50 pg/mL. For the same molecule, the “IL-2 production, absolute values” (compound 10 uM) was 62.50 pg/mL.

In the case of NC(=O)c1ccc(C[C@@]2(C3=Cc4ccccc4C3)Cc3ccccc3[C@H]2O)cc1 [Compound 20, 4-{[(1′S,2′S)-1′-hydroxy-1′,3′-dihydro-1H,2′H-2,2′-biinden-2′-yl]methyl}benzamide], the “IL-2 production, absolute values” (compound 1 uM) is reported as 174.11 pg/mL and the “IL-2 production, absolute values” (compound 10 uM) is reported as 141.78 pg/mL.

In the case of NCC(=O)O[C@H]1c2ccccc2C[C@]1(Cc1ccc(C(=O)O)cc1)C1=Cc2ccccc2C1 [Compound 27, 4-{[(1′R,2′R)-1′-(glycyloxy)-1′,3′-dihydro-1H,2′H-2,2′-biinden-2′-yl]methyl}benzoic acid], the “effect on IL2 release, in words” value is reported as “potentiates release of IL2”, the “IL-2 production, absolute values” (compound 1 uM) is reported as 350.13 pg/mL and the “IL-2 production, absolute values” (compound 10 uM) is reported as 172.88 pg/mL.

With COC(=O)c1ccc(C[C@@]2(C3=Cc4ccccc4C3)Cc3ccccc3[C@H]2OC(=O)[C@@H](N)CC(C)C)cc1 [Compound 39, methyl 4-(((1S,2S)-1-(((S)-2-amino-4-methylpentanoyl)oxy)-2,3-dihydro-1H,1′H-[2,2′-biinden]-2-yl)methyl)benzoate] the activity at 1 µM was 73.7%, the activity at 10 µM was 21.7% and the “IL-2 production, absolute values” (compound 1 uM) was 105.94 pg/mL. The “IL-2 production, absolute values” (compound 10 uM) was 40.69 pg/mL.

CN(C)C(=O)c1ccc(C[C@]2(C3=Cc4ccccc4C3)Cc3ccccc3[C@@H]2O)cc1 [Compound 16, 4-{[(1′R,2′R)-1′-hydroxy-1′,3′-dihydro-1H,2′H-2,2′-biinden-2′-yl]methyl}-N,N-dimethylbenzamide] was tested, and the “IL-2 production, absolute values” (compound 1 uM) was 243.00 pg/mL and the “IL-2 production, absolute values” (compound 10 uM) was 171.78 pg/mL.

With CCOC(=O)c1ccc(C[C@@]2(C3=Cc4ccccc4C3)Cc3ccccc3[C@H]2OC(=O)[C@@H](N)CC(C)C)cc1 [Compound 40, ethyl 4-(((1S,2S)-1-(((S)-2-amino-4-methylpentanoyl)oxy)-2,3-dihydro-1H,1′H-[2,2′-biinden]-2-yl)methyl)benzoate] the activity at 1 µM was 82.6%, the activity at 10 µM was 20.9% and the “IL-2 production, absolute values” (compound 1 uM) was 84.86 pg/mL. For the same molecule, the “IL-2 production, absolute values” (compound 10 uM) was 12.71 pg/mL.

CC(C)C[C@H](N)C(=O)O[C@@H]1c2ccccc2C[C@@]1(Cc1ccc(C(=O)O)cc1)C1=Cc2ccccc2C1 [Compound 28, 4-{[(1′S,2′S)-1′-(L-leucyloxy)-1′,3′-dihydro-1H,2′H-2,2′-biinden-2′-yl]methyl}benzoic acid] was tested, and the “IL-2 production, absolute values” (compound 1 uM) was 214.75 pg/mL and the “IL-2 production, absolute values” (compound 10 uM) was 135.63 pg/mL.

For CCCOC(=O)c1ccc(C[C@@]2(C3=Cc4ccccc4C3)Cc3ccccc3[C@H]2O)cc1 [Compound 19, propyl 4-(((1S,2S)-1-hydroxy-2,3-dihydro-1H,1′H-[2,2′-biinden]-2-yl)methyl)benzoate], the “IL-2 production, absolute values” (compound 1 uM) was 174.44 pg/mL and the “IL-2 production, absolute values” (compound 10 uM) was 81.00 pg/mL.

In the case of CNC(=O)c1ccc(C[C@@]2(C3=Cc4ccccc4C3)Cc3ccccc3[C@H]2OC(=O)[C@@H](N)CC(C)C)cc1 [Compound 44, (1S,2S)-2-[4-(methylcarbamoyl)benzyl]-2,3-dihydro-1H,1′H-2,2′-biinden-1-yl L-leucinate], the activity at 1 µM is reported as 76.2%, the activity at 10 µM is reported as 21% and the “IL-2 production, absolute values” (compound 1 uM) is reported as 72.50 pg/mL. For the same molecule, the “IL-2 production, absolute values” (compound 10 uM) was 12.43 pg/mL.

CC(C)C[C@H](N)C(=O)O[C@H]1c2ccccc2C[C@]1(Cc1ccc(C(=O)N(C)C)cc1)C1=Cc2ccccc2C1 [Compound 38, (1R,2R)-2-[4-(dimethylcarbamoyl)benzyl]-2,3-dihydro-1H,1′H-2,2′-biinden-1-yl L-leucinate] was tested, and the “effect on IL2 release, in words” value was “inactive”, the activity at 1 µM was 107% and the activity at 10 µM was 62.7%. For the same molecule, the “IL-2 production, absolute values” (compound 1 uM) was 226.75 pg/mL and the “IL-2 production, absolute values” (compound 10 uM) was 268.63 pg/mL.

With COC(=O)c1ccc(C[C@]2(C3=Cc4ccccc4C3)Cc3ccccc3[C@@H]2OC(=O)[C@@H](N)CC(C)C)cc1 [Compound 32, methyl 4-(((1R,2R)-1-(((S)-2-amino-4-methylpentanoyl)oxy)-2,3-dihydro-1H,1′H-[2,2′-biinden]-2-yl)methyl)benzoate] the activity at 1 µM was 86.2%, the activity at 10 µM was 40.8% and the “IL-2 production, absolute values” (compound 1 uM) was 215.25 pg/mL. The “IL-2 production, absolute values” (compound 10 uM) was 74.88 pg/mL.

For CCOC(=O)c1ccc(C[C@]2(C3=Cc4ccccc4C3)Cc3ccccc3[C@@H]2OC(=O)[C@@H](N)CC(C)C)cc1 [Compound 33, ethyl 4-(((1R,2R)-1-(((S)-2-amino-4-methylpentanoyl)oxy)-2,3-dihydro-1H,1′H-[2,2′-biinden]-2-yl)methyl)benzoate], the activity at 1 µM was 89.4%, the activity at 10 µM was 43.6% and the “IL-2 production, absolute values” (compound 1 uM) was 186.25 pg/mL. The “IL-2 production, absolute values” (compound 10 uM) was 74.38 pg/mL.

For O=C(NCCO)c1ccc(C[C@]2(C3=Cc4ccccc4C3)Cc3ccccc3[C@@H]2O)cc1 [Compound 14, 4-{[(1′R,2′R)-1′-hydroxy-1′,3′-dihydro-1H,2′H-2,2′-biinden-2′-yl]methyl}-N-(2-hydroxyethyl)benzamide], the “IL-2 production, absolute values” (compound 1 uM) was 214.44 pg/mL and the “IL-2 production, absolute values” (compound 10 uM) was 146.44 pg/mL.

For CNC(=O)c1ccc(C[C@@]2(C3=Cc4ccccc4C3)Cc3ccccc3[C@H]2O)cc1 [Compound 22, 4-{[(1′S,2′S)-1′-hydroxy-1′,3′-dihydro-1H,2′H-2,2′-biinden-2′-yl]methyl}-N-methylbenzamide], the “IL-2 production, absolute values” (compound 1 uM) was 198.56 pg/mL and the “IL-2 production, absolute values” (compound 10 uM) was 113.33 pg/mL.

CC(C)C[C@H](N)C(=O)O[C@H]1c2ccccc2C[C@]1(Cc1ccc(C(=O)O)cc1)C1=Cc2ccccc2C1 [Compound 24, 4-{[(1′R,2′R)-1′-(L-leucyloxy)-1′,3′-dihydro-1H,2′H-2,2′-biinden-2′-yl]methyl}benzoic acid] was tested, and the “IL-2 production, absolute values” (compound 1 uM) was 202.13 pg/mL and the “IL-2 production, absolute values” (compound 10 uM) was 149.63 pg/mL.

For CNC(=O)c1ccc(C[C@]2(C3=Cc4ccccc4C3)Cc3ccccc3[C@@H]2O)cc1 [Compound 15, 4-{[(1′R,2′R)-1′-hydroxy-1′,3′-dihydro-1H,2′H-2,2′-biinden-2′-yl]methyl}-N-methylbenzamide], the “IL-2 production, absolute values” (compound 1 uM) was 207.78 pg/mL and the “IL-2 production, absolute values” (compound 10 uM) was 113.67 pg/mL.

COC(=O)c1ccc(C[C@@]2(C3=Cc4ccccc4C3)Cc3ccccc3[C@H]2O)cc1 [Compound 17, methyl 4-(((1S,2S)-1-hydroxy-2,3-dihydro-1H,1′H-[2,2′-biinden]-2-yl)methyl)benzoate] was tested, and the “IL-2 production, absolute values” (compound 1 uM) was 168.44 pg/mL.

With CCOC(=O)c1ccc(C[C@]2(C3=Cc4ccccc4C3)Cc3ccccc3[C@@H]2O)cc1 [Compound 11, ethyl 4-(((1R,2R)-1-hydroxy-2,3-dihydro-1H,1′H-[2,2′-biinden]-2-yl)methyl)benzoate] the “IL-2 production, absolute values” (compound 1 uM) was 272.22 pg/mL and the “IL-2 production, absolute values” (compound 10 uM) was 105.11 pg/mL.

For CCOC(=O)c1ccc(C[C@@]2(C3=Cc4ccccc4C3)Cc3ccccc3[C@H]2O)cc1 [Compound 18, ethyl 4-(((1S,2S)-1-hydroxy-2,3-dihydro-1H,1′H-[2,2′-biinden]-2-yl)methyl)benzoate], the “IL-2 production, absolute values” (compound 1 uM) was 190.78 pg/mL and the “IL-2 production, absolute values” (compound 10 uM) was 79.56 pg/mL.

For COC(=O)c1ccc(C[C@]2(C3=Cc4ccccc4C3)Cc3ccccc3[C@@H]2O)cc1 [Compound 10, methyl 4-(((1R,2R)-1-hydroxy-2,3-dihydro-1H,1′H-[2,2′-biinden]-2-yl)methyl)benzoate], the “IL-2 production, absolute values” (compound 1 uM) was 185.56 pg/mL.

For CC(C)[C@H](N)C(=O)O[C@H]1c2ccccc2C[C@]1(Cc1ccc(C(=O)O)cc1)C1=Cc2ccccc2C1 [Compound 25, 4-{[(1′R,2′R)-1′-(L-valyloxy)-1′,3′-dihydro-1H,2′H-2,2′-biinden-2′-yl]methyl}benzoic acid], the “IL-2 production, absolute values” (compound 1 uM) was 208.38 pg/mL and the “IL-2 production, absolute values” (compound 10 uM) was 174.25 pg/mL.

CC[C@H](C)[C@H](N)C(=O)O[C@@H]1c2ccccc2C[C@@]1(Cc1ccc(C(=O)O)cc1)C1=Cc2ccccc2C1 [Compound 30, 4-{[(1′S,2′S)-1′-(L-isoleucyloxy)-1′,3′-dihydro-1H,2′H-2,2′-biinden-2′-yl]methyl}benzoic acid] was tested, and the “IL-2 production, absolute values” (compound 1 uM) was 191.63 pg/mL and the “IL-2 production, absolute values” (compound 10 uM) was 174.50 pg/mL.

With CN(C)C(=O)c1ccc(C[C@@]2(C3=Cc4ccccc4C3)Cc3ccccc3[C@H]2O)cc1 [Compound 23, 4-{[(1′S,2′S)-1′-hydroxy-1′,3′-dihydro-1H,2′H-2,2′-biinden-2′-yl]methyl}-N,N-dimethylbenzamide] the “IL-2 production, absolute values” (compound 1 uM) was 191.44 pg/mL and the “IL-2 production, absolute values” (compound 10 uM) was 193.56 pg/mL.

With CCCOC(=O)c1ccc(C[C@]2(C3=Cc4ccccc4C3)Cc3ccccc3[C@@H]2O)cc1 [Compound 12, propyl 4-(((1R,2R)-1-hydroxy-2,3-dihydro-1H,1′H-[2,2′-biinden]-2-yl)methyl)benzoate] the “IL-2 production, absolute values” (compound 1 uM) was 240.22 pg/mL and the “IL-2 production, absolute values” (compound 10 uM) was 132.44 pg/mL.

CC(C)C[C@H](N)C(=O)O[C@@H]1c2ccccc2C[C@@]1(Cc1ccc(C(=O)N(C)C)cc1)C1=Cc2ccccc2C1 [Compound 45, (1S,2S)-2-[4-(dimethylcarbamoyl)benzyl]-2,3-dihydro-1H,1′H-2,2′-biinden-1-yl L-leucinate] was tested, and the “effect on IL2 release, in words” value was “greatest inhibition of IL2 release”, the activity at 1 µM was 51.5% and the activity at 10 µM was 1.5%. The “IL-2 production, absolute values” (compound 1 uM) was 56.07 pg/mL and the “IL-2 production, absolute values” (compound 10 uM) was 14.29 pg/mL.
